In brackets after ≈: the same amount, converted by molar mass.
What was measured:
tumor = settings: in conjunction with cancer chemotherapy or radiation therapy; Teicher et al; cited from earlier work
HTB 16 = assay: Antiproliferative activity in human tumor cell line HTB 16; type: cell-based; settings: Homo sapiens; ovarian tumor line; PROTOCOL 1 and PROTOCOL 2
Method: (§1) PROTOCOL 1, 2, and 3 are described in greater detail hereinbelow. In general, according to PROTOCOLS 1 and 2, the target ABAE and/or Human Tumor cells are exposed to the compound of Formula I for 48 hours. PROTOCOL 3 exposes ABAE cell to the compound for 4 days. A detailed description of the protocol is as follows:
(§2) Antiproliferative Activity in Human Tumor and Adult Bovine Aortic Endothelial (ABAE) Cell Lines
(§3) The antiproliferative activity of the compounds of Formula I of the present invention is evaluated in a panel comprised of human tumor cell lines and an adult bovine aortic endothelial cell line (ABAE). The human tumor cell lines are from:
(§4) All cell lines are maintained in log phase in RPMI 1640 media, supplemented with 5% fetal calf serum, penicillin/streptomycin and 2 mM L-glutamine. Cultures are renewed after 20 passages with cells from a fresh stock of batch-frozen early passage cells. Cell lines are routinely checked for mycoplasma contamination (Genprobe). In a laminar flow hood, cells (1-5×10^4) are plated into 96-well microtiter plates in a volume of 0.1 ml/well with a bulk microtiter dispenser (Denley). […] At this concentration, dimethylsulfoxide has no effect on cell growth. Compounds are added using a Tomtec dispenser which simultaneously dispenses from one 96-well plate, containing the drug dilutions, to the plates containing the cells. After two days of continuous drug exposure, 50% cold trichloroacetic acid (TCA) is added to 10% final concentration to fix the cells, and after 60 minutes at 4° C., the TCA is aspirated and the plates are washed 5 times with deionized water using a microtiter plate washer. The number of cells on the plate are quantitated using a protein dye-binding assay (Monks et al., 1991). A 0.4% solution of the dye, sulforhodamine B, in glacial acetic acid is added to the plates, and the plates are washed 5 times with 1% glacial acetic acid using the automatic plate washed. The bound stain is solubilized with 0.1 ml of 10 mM Tris base. The optical densities are read from an automatic spectrophotometric plate reader (Dynatech) directly to a main frame computer (VAX 8600).
(§5) Positive controls, that include standard chemotherapeutic drugs (i.e., adriamycin, cisplatin, etc.), are included in every experiment.
(§6) Background optical density measurements (complete media-cells, and complete media+drug-cells) are automatically subtracted from the appropriate control and test wells. Mean values and standard errors are determined from duplicate wells. A measure is also made of the optical density at time when the drugs are added. The number of cells after treatment (P), as % of control, is calculated for every concentration of drug, as follows: [formula] wherein: T is optical density measurement for treated cells after 48 hours;
(§7) C is optical density measurement for untreated cells after 48 hours;
(§8) Co is optical density measurement for cells at the time of drug addition.
(§9) IC50 of growth inhibition is calculated from the sets of P values using the RS-1 data package (BBN Software).
(§10) The antiproliferative activity of the compounds of Formula I is evaluated in a panel comprised of human tumor cell lines and an adult bovine aortic endothelial cell line (ABAE) as listed in PROTOCOL 1. This assay is a modification of PROTOCOL 1. The modifications include:
(§11) 1) each concentration for each compound is tested in a single well;
(§12) 2) compounds are tested at 20, 4, 0.8, 0.16 microgram/ml and additionally in some experiments at 100 and 0.32 microgram/ml;
(§13) 3) samples are pipetted into a 96-well plate for each of the cell lines by a Beckman Biomek 1000 SL robot;
(§14) 4) after fixing with TCA each well is washed with 0.35 ml distilled water twice, not five times;
(§15) 5) after staining with sulforhodamine B each well is washed 3 times, not five times; […]

Human Tumor Cell lines = assay: Antiproliferative activity in panel of human tumor cell lines; type: cell-based; settings: average over the tested human tumor cell lines
Method: as §1, §2, §3
(§16) 2) Colon tumors: MIP, CaCo2, and SW620.
as §4, §5, §6, §7, §8, §9, §10, §11, §12, §13, §14, §15

[1] = test system: Adult Bovine Aortic Endothelial (ABAE) cell line; assay: Antiproliferative activity in ABAE cells, PROTOCOL 3 (4 days, cell count); type: cell-based; settings: Bos taurus, 96 h, PROTOCOL 3, FIG. 1, read-out: inhibits 50% of cell growth
Method: as §1
Antiproliferative Activity in Adult Bovine Aortic Endothelial (ABAE) Cell Line
ABAE cells are grown in DMEM media (Mediatech, Washington, D.C.) supplemented with 10% calf serum (Hyclone). ABAE cells are plated in 24-well dishes at 8,000 cells/well, followed by the addition of increasing concentrations of 7-[substituted amino]-9-[(substituted glycyl)amido]-6-demethyl-6-deoxytetracyclines. After four days, the cells are detached and counted. […] The growth inhibition (I) as % of control is calculated as follows: [formula] wherein: Nc is the number of cells in untreated wells;
Nt is the number of cells in treated wells;
No is the number of plated cells.
IC50 of growth inhibition is determined from the sets of I values plotted by Kaleidograph software (Abelbeck Software).
In addition FIG. 1, presents the dose response curve of the compound of Example 6 for the above ABAE cell line obtained by PROTOCOL 3.

MIP = assay: Antiproliferative activity in human colon tumor cell line MIP; type: cell-based; settings: Homo sapiens, PROTOCOL 1 and PROTOCOL 2
Method: as §1, §2, §3, §16, §4, §5, §6, §7, §8, §9, §10, §11, §12, §13, §14, §15

SW620 = assay: Antiproliferative activity in human colon tumor cell line SW620; type: cell-based; settings: Homo sapiens, SW-620, PROTOCOL 1 and PROTOCOL 2
Method: as §1, §2, §3, §16, §4, §5, §6, §7, §8, §9, §10, §11, §12, §13, §14, §15

[2] = test system: Adult Bovine Aortic Endothelial (ABAE) cell line; assay: Antiproliferative activity in ABAE cells, PROTOCOL 2 (48 h, SRB, single well); type: cell-based; settings: Bos taurus; ABAE cells, 48 h, PROTOCOL 2
Method: as §1, §2, §10, §11, §12, §13, §14
5) after staining with sulforhodamine B each well is washed 3 times, not five times;
6) the growth inhibition (I) as % of control, is calculated using the RS-1 data package (BBN Software), for every concentration of drug, as follows: [formula] wherein: T is optical density measurement for treated cells after 48 hours;
as §7
7) IC50 of growth inhibition is determined from graphically from dose response curves, as is known in the art.
Table 1 presents the results depicting the antiproliferative activity of the compounds of Formula I against an Adult Bovine Aortic Endothelial (ABAE) cell line, as evaluated by PROTOCOL 1 and PROTOCOL 2. The results are presented in terms of IC50 and are as follows.

angiogenesis = settings: Cancer Research 51, 672-675, Brem et al; vs combination of heparin and cortisone; cited from earlier work
A2780/DDP = assay: Antiproliferative activity in human ovarian tumor cell line A2780/DDP; type: cell-based; settings: Homo sapiens, A2780/DDP, read-out: A2780/DDP/DDP IC50, PROTOCOL 1 and PROTOCOL 2
Method: as §1, §2, §3, §4, §5, §6, §7, §8, §9, §10, §11, §12, §13, §14, §15

CN(C)c1ccc(O)c2c1C[C@H]1C[C@H]3[C@H](N(C)C)C(O)=C(C(N)=O)C(=O)[C@@]3(O)C(O)=C1C2=O [Minocycline, reference compound]
number of metastases (tumor): reduced
tumor growth (tumor): decreased
IC50 (HTB 16): 5.8 µg/mL (≈ 12.7 µM)
IC50 (Human Tumor Cell lines): 6.6 µg/mL (≈ 14.4 µM)
IC50 [1]: ~50 µg/mL (≈ 109 µM)
IC50 (MIP): 6.1 µg/mL (≈ 13.3 µM)
IC50 (SW620): 6.5 µg/mL (≈ 14.2 µM)
IC50 [2]: ≥ 20 µg/mL
extent of angiogenesis inhibition (angiogenesis): comparable to that of the combination therapy of heparin and cortisone
IC50 (A2780/DDP): 6.1 µg/mL (≈ 13.3 µM)
